# Reference: patent US20220135622A1, “ANTIBACTERIAL PEPTIDES AND METHODS OF USE” (priority 2019, published 2022)
# Like-named read-outs stand apart in the source and are kept apart here. Square brackets hold non-standard residues; d marks the D form. Peptide text beside a SMILES is read from it. Bip = N[C@@H](Cc1ccc(-c2ccccc2)cc1)C(=O)O; aThr = C[C@H](O)[C@H](N)C(=O)O; NMeM = CN[C@@H](CCSC)C(=O)O; NMeA = CN[C@@H](C)C(=O)O; Orn = NCCC[C@H](N)C(=O)O; Dap = NC[C@H](N)C(=O)O
# Key:
# A. baumannii = format: cell-based, Acinetobacter baumannii; details: Table 8
# Outline: (§1)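 Growth inhibition: log-phase cells (OD600 ~0.001), peptides in 2-fold series up to 400–800 μM in MHB II, EDTA 0.5 mM (E. coli) or 0.125 mM (USA300), 4 h at 37 °C, ATP luminescence readout. MICs: inoculum at OD600 ~0.0002, with or without EDTA, 20 h at 37 °C, OD600 endpoint.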
# P. aeruginosa = format: cell-based, Pseudomonas aeruginosa; details: Table 8
# Outline: as §1
# K. pneumoniae = format: cell-based, Klebsiella pneumoniae; details: Table 8
# Outline: as §1
# E. coli BW25113 = format: cell-based, Escherichia coli
# Outline: as §1
# E. coli ΔwaaD + vect. = test: MIC assay, E. coli ΔwaaD + vect.; format: cell-based, Escherichia coli; details: Table 7
# Experimental: (§2) Bacterial growth conditions. LB or Mueller Hinton II cation-adjusted broth (MHB II, BBL 212322) was prepared according to manufacturer's instructions and supplemented with arabinose at 0.02% for overnight growth or at indicated concentrations in the description of the figures. Bacterial cultures were grown at 37° C. When appropriate, media was supplemented with kanamycin (50 μg/mL), carbenicillin (50 μg/mL), chloramphenicol (12.5 or 25 μg/mL), hygromycin (200 μg/mL), and/or gentamicin (10 μg/mL).
# (§3) Peptide sensitivity and MIC assays. Lyophilized peptides (Smartox Biotechnology, CPC Scientific. ABclonal) were solubilized to 10 mM in Tris buffer, pH 8, prior to making a 2-fold dilution series in MHBII cation adjusted broth with highest final assay concentration of 400-800 μM. Bacteria were grown to log phase and added to final OD600˜0.001. The final EDTA concentration was 0.5 mM for E. coli strains and 0.125 mM for USA300. The final volume of 10 μL/well in a 384 well black, clear bottom plate (Corning) was spun <1 min at <250×g and then incubated at 37° C. After 4 h, an equal volume (10 μL) of BacTiter-Glo™ (Promega) was added to each well and luminescence was read after 5 min on an EnVision plate reader (PerkinElmer). To measure the minimal inhibitory concentrations (MICs), bacteria from fresh overnight plates or log phase cultures were diluted with or without EDTA and peptides as described above to final OD600˜0.0002. Plates were incubated at 37° C. for 20 h before measuring OD600 with an EnVision plate reader.
# E. coli imp4213 = test: MIC assay, E. coli imp4213; format: cell-based, Escherichia coli; details: Table 7
# Experimental: as §2, §3
# E. coli ΔwaaD MCR-1 = test: MIC assay, E. coli ΔwaaD MCR-1; format: cell-based, Escherichia coli; details: Table 7
# Experimental: as §2, §3
# S. aureus USA300 = test: MIC assay, S. aureus USA300; format: cell-based, Staphylococcus aureus; details: Table 7
# Experimental: as §2, §3
Compound,MIC A. baumannii (A. baumannii) [µM],MIC R. aeruginosa (P. aeruginosa) [µM],MIC K. pneumoniae (K. pneumoniae),MIC E. coli BW25113 (E. coli BW25113; Table 8) [µM],MIC E. coli ΔwaaD + vect. (E. coli ΔwaaD + vect.) [µM],MIC E. coli imp4213 (E. coli imp4213) [µM],MIC E coli ΔwaaD − MCR1 (E. coli ΔwaaD MCR-1),MIC S. aureus USA300 (S. aureus USA300) [µM],"MIC E. coli BW25113 (E. coli BW25113; Table 7, no EDTA) [µM]"
CSCC[C@H](NC(=O)[C@@H]1CCCN1C(=O)[C@H](Cc1ccc(O)cc1)NC(C)=O)C(=O)N[C@H](C(=O)N[C@@H](C)C(=O)N[C@@H](CCCNC(=N)N)C(=O)N[C@@H](CCCNC(=N)N)C(=O)N[C@@H](Cc1ccccc1)C(=O)N[C@@H](CC(C)C)C(=O)N[C@@H](CCC(=O)O)C(=O)N[C@@H](CCCCN)C(=O)N[C@@H](Cc1c[nH]c2ccccc12)C(=O)NCC(=O)N[C@@H](CC(C)C)C(=O)N[C@@H](CC(C)C)C(=O)N[C@@H](CCCNC(=N)N)C(N)=O)[C@H](C)O [compound 48] (Ac-YPM[aThr]ARRFLEKWGLLR-NH2),200,400,400 µM,400,100,17.5,400 µM,>400,–
CSCC[C@H](NC(=O)[C@@H]1CCCN1C(=O)[C@H](Cc1ccc(O)cc1)NC(C)=O)C(=O)N[C@@H](CN)C(=O)N[C@@H](C)C(=O)N[C@@H](CCCNC(=N)N)C(=O)N[C@@H](CCCNC(=N)N)C(=O)N[C@@H](Cc1ccccc1)C(=O)N[C@@H](CC(C)C)C(=O)N[C@@H](CCC(=O)O)C(=O)N[C@@H](CCCCN)C(=O)N[C@@H](Cc1c[nH]c2ccccc12)C(=O)NCC(=O)N[C@@H](CC(C)C)C(=O)N[C@@H](CC(C)C)C(=O)N[C@@H](CCCNC(=N)N)C(N)=O [compound 51] (Ac-YPM[Dap]ARRFLEKWGLLR-NH2),100,400,200 µM,100,100,12.5,200 µM,>400,–
CSCC[C@H](NC(=O)[C@@H]1CCCN1C(=O)[C@H](Cc1ccc(O)cc1)NC(C)=O)C(=O)N[C@H](C(=O)N[C@@H](C)C(=O)N[C@@H](CCCN)C(=O)N[C@@H](CCCNC(=N)N)C(=O)N[C@@H](Cc1ccccc1)C(=O)N[C@@H](CC(C)C)C(=O)N[C@@H](CCC(=O)O)C(=O)N[C@@H](CCCCN)C(=O)N[C@@H](Cc1c[nH]c2ccccc12)C(=O)NCC(=O)N[C@@H](CC(C)C)C(=O)N[C@@H](CC(C)C)C(=O)N[C@@H](CCCNC(=N)N)C(N)=O)[C@@H](C)O [compound 53] (Ac-YPMTA[Orn]RFLEKWGLLR-NH2),400,400,800 µM,400,100,–,400 µM,>400,–
CSCC[C@H](NC(=O)[C@@H]1CCCN1C(=O)[C@H](Cc1ccc(O)cc1)NC(C)=O)C(=O)N[C@H](C(=O)N[C@@H](C)C(=O)N[C@@H](CCCNC(=N)N)C(=O)N[C@@H](CCCNC(=N)N)C(=O)N[C@@H](Cc1ccc(-c2ccccc2)cc1)C(=O)N[C@@H](CC(C)C)C(=O)N[C@@H](CCC(=O)O)C(=O)N[C@@H](CCCCN)C(=O)N[C@@H](Cc1c[nH]c2ccccc12)C(=O)NCC(=O)N[C@@H](CC(C)C)C(=O)N[C@@H](CC(C)C)C(=O)N[C@@H](CCCNC(=N)N)C(N)=O)[C@@H](C)O [compound 55] (Ac-YPMTARR[Bip]LEKWGLLR-NH2),25,>800,400 µM,100,25,6.25,50 µM,>400,–
CSCC[C@H](NC(=O)[C@@H]1CCCN1C(=O)[C@H](Cc1ccc(O)cc1)NC(C)=O)C(=O)N[C@H](C(=O)N(C)[C@@H](C)C(=O)N[C@@H](CCCNC(=N)N)C(=O)N[C@@H](CCCNC(=N)N)C(=O)N[C@@H](Cc1ccccc1)C(=O)N[C@@H](CC(C)C)C(=O)N[C@@H](CCC(=O)O)C(=O)N[C@@H](CCCCN)C(=O)N[C@@H](Cc1c[nH]c2ccccc12)C(=O)NCC(=O)N[C@@H](CC(C)C)C(=O)N[C@@H](CC(C)C)C(=O)N[C@@H](CCCNC(=N)N)C(N)=O)[C@@H](C)O [compound 64] (Ac-YPMT[NMeA]RRFLEKWGLLR-NH2),400,400,None/400,400,<6.25,12.5,400 µM,–,–
CSCC[C@@H](C(=O)N[C@H](C(=O)N(C)[C@@H](C)C(=O)N[C@@H](CCCNC(=N)N)C(=O)N[C@@H](CCCNC(=N)N)C(=O)N[C@@H](Cc1ccccc1)C(=O)N[C@@H](CC(C)C)C(=O)N[C@@H](CCC(=O)O)C(=O)N[C@@H](CCCCN)C(=O)N[C@@H](Cc1c[nH]c2ccccc12)C(=O)NCC(=O)N[C@@H](CC(C)C)C(=O)N[C@@H](CC(C)C)C(=O)N[C@@H](CCCNC(=N)N)C(N)=O)[C@@H](C)O)N(C)C(=O)[C@@H]1CCCN1C(=O)[C@H](Cc1ccc(O)cc1)NC(C)=O [compound 65] (Ac-YP[NMeM]T[NMeA]RRFLEKWGLLR-NH2),50,800,200 µM,200,<6.25,12.5,100 µM,800,–
Ac-YPMNARRFLEKWGLLR-NH2 [compound 50],400,800,800 µM,400,200,25,800/400,>400,–
Ac-YPMSARRFLEKWGLLR-NH2 [compound 49],200,400,800 µM,400,100,25,400 µM,>400,–
Ac-YPMTAQRFLEKWGLLR-NH2 [compound 54],>800,>800,>800 µM,–,100,100,>800 µM,>400,>400
Ac-YPMTARRFLAKWGLLR-NH2 [compound 57],100,200,400 µM,200,100,12.5,100/700,>400,–
Ac-YPMTARRFLEKWGL-NH2 [compound 44],>800,800,>800 µM,–,200,100,>800 µM,>800,>400
